Assay results taken from publication PMC5948155 (ACS infectious diseases, 2018).
Entries after “also recorded” stand apart in the source; their conditions may differ. Structures can show the parent of a compound that is named as a salt. Where two headings read alike, the source gives them in different places.

Experiments:
Assay type in all cases: cell-based
[1] = target: T1, cholera toxin subunit B (CTB) (Vibrio cholerae serotype O1, UniProt P01556)
[2] = target: T1, cholera toxin subunit B (CTB); test: cell-based
[3] = target: T1, cholera toxin subunit B (CTB); remark: listed apart in the source
[4] = target: T2, Aleuria aurantia lectin (AAL) (Aleuria aurantia, UniProt P18891)
T2 sequence (P18891 1-313): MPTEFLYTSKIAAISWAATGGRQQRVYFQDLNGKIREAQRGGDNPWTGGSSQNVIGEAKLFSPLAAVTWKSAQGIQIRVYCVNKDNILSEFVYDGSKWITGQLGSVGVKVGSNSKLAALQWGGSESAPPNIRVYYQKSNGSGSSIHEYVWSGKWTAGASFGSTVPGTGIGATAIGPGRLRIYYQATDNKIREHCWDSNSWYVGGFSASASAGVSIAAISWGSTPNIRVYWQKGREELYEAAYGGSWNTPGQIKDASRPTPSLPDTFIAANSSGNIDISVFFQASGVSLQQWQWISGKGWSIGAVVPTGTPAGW

[5] = target: T2, Aleuria aurantia lectin (AAL); remark: listed apart in the source
CTB = CTB (Vibrio cholerae serotype O1, UniProt P01556)
CTB, sequence (P01556 22-124 limits assumed): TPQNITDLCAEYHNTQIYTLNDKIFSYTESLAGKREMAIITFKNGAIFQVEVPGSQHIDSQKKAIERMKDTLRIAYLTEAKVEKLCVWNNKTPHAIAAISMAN

[6] = target: T3, Maackia amurensis lectin I (MAL I) (Maackia amurensis, UniProt P0DKL3)
T3 sequence (P0DKL3 30-287): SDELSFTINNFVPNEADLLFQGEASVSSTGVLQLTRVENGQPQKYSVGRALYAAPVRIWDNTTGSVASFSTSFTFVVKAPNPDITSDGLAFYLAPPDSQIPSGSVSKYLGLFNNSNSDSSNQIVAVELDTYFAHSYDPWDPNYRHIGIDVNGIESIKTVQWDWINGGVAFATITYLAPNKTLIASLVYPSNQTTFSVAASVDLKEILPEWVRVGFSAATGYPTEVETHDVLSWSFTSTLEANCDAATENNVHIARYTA

[7] = target: Sambucus nigra lectin (SNA) (Sambucus nigra, UniProt Q41358)
Sambucus nigra lectin (SNA), sequence (Q41358 309-570 limits assumed): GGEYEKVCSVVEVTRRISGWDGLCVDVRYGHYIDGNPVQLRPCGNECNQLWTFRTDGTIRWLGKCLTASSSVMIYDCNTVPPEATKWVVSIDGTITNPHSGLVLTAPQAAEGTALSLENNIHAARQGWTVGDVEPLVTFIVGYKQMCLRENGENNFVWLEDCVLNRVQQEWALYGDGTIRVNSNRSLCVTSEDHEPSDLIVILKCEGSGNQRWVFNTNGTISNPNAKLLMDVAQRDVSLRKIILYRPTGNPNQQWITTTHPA
Sambucus nigra lectin (SNA), sequence (Q41358 29-292 partner limits assumed): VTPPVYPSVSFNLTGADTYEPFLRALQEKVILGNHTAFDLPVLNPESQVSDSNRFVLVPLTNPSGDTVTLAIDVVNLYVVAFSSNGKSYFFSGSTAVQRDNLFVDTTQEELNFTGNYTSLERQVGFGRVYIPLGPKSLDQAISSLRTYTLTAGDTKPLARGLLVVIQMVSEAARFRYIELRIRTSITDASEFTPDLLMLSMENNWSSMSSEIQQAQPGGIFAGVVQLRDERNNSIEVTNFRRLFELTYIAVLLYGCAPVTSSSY

T1 sequence (P01556 22-124 limits assumed): as the sequence (P01556 22-124 limits assumed) above

| Compound | Inhibition of CTB binding to T84 cells (in words) [1] | Inhibition of CTB binding to Colo205 cells (in words) [2] | Inhibition of AAL binding to Colo205 cells (in words) [4] | further results |
| --- | --- | --- | --- | --- |
| COC1OC(C)C(O)C(O)C1O [methyl β-L-fucose, Methyl b-L-fucopyranoside] | inhibitory activity was not observed | significantly less |  |  |
| C[C@@H]1OC(O)[C@@H](O)C[C@@H]1O (stereo partly drawn) [L-colitose] | significant loss in inhibitory potential |  |  |  |
| CC(=O)N[C@H]1C(O)O[C@H](CO)[C@@H](O[C@@H]2O[C@H](CO)[C@H](O)[C@H](O)[C@H]2O[C@@H]2O[C@@H](C)[C@@H](O)[C@@H](O)[C@@H]2O)[C@@H]1O[C@@H]1O[C@@H](C)[C@@H](O)[C@@H](O)[C@@H]1O (mixture of isomers) [LeY, Fucα2Galβ4[Fucα3]GlcNAc] |  | most potent blocker | more efficient; also recorded: capable of inhibiting | Inhibition of CTB binding to primary human jejunal epithelial cells (in words) [3]: effectively block; Inhibition of CTB binding to T84 cells, titration of inhibitor (in words) [1]: near complete inhibition; CTB binding, % of the no sugar control [2]: ~ 20%; AAL lectin retained bound to the cell surface [4]: ~ 15% |
| CC(=O)NC1C(O)OC(CO)C(OC2OC(CO)C(O)C(OC3OC(CO)C(O)C(O)C3O)C2OC2OC(C)C(O)C(O)C2O)C1OC1OC(C)C(O)C(O)C1O (stereo not shown) [BLeY] |  | failed to produce a further increase in potency; also recorded: comparable blocking activity as LeY |  |  |
| C[C@H](O)[C@@H](O)[C@@H](O)[C@H](O)C=O [L-fucose, l-(−)-Fucose] | dramatically suppress; also recorded: suppression of CTB binding was observed |  | effectively block | Inhibition of AAL binding to T84 cells (in words) [5]: effectively block; CTB binding, % of the no sugar control [2]: ~ 20%; IC50 [2]: 14.5 mM |
| O=C[C@@H](O)[C@H](O)[C@@H](O)[C@@H](O)CO [L-glucose] |  |  |  | Inhibition of CTB binding (in words) (CTB): loss of all inhibitory activity |
| CC(=O)N[C@H]1[C@H]([C@H](O)[C@H](O)CO)O[C@@](O[C@H]2[C@@H](O)[C@@H](CO)O[C@@H](O[C@H]3[C@H](O)[C@@H](O)C(O)O[C@@H]3CO)[C@@H]2O)(C(=O)O)C[C@@H]1O (stereo partly shown) [3′-SL, 3′-Sialyllactose sodium salt] | no inhibition | no inhibition |  | Inhibition of MAL I binding (in words) [6]: enhance the inhibitory potential of lactose |
| CO[C@@H]1O[C@@H](C)[C@@H](O)[C@@H](O)[C@@H]1O [methyl α-L-fucose, Methyl a-L-fucopyranoside] | suppression of CTB binding was observed | inhibited CTB binding as efficiently as L-fucose |  |  |
| CC(=O)N[C@H]1[C@H]([C@H](O)[C@H](O)CO)O[C@@](O[C@H]2[C@@H](O)[C@@H](CO)O[C@@H](O[C@H]3[C@H](O)[C@@H](NC(C)=O)C(O)O[C@@H]3CO)[C@@H]2O)(C(=O)O)C[C@@H]1O (stereo partly shown) [3′-SLN, 3′-Sialyl-N-acetyllactosamine] |  | incapable of inhibiting |  |  |
| C[C@H]1OC(O)[C@H](O)[C@@H](O)[C@H]1O (stereo partly drawn) [D-fucose, d-(+)-Fucose] | only a modest effect | only minor effects | virtually no effect | Inhibition of AAL binding to T84 cells (in words) [5]: virtually no effect |
| Asialo-GM1-tetrasaccharide [GA1(os)] |  | significantly attenuated |  | Inhibition of CTB binding to T84 cells, titration of inhibitor (in words) [1]: no inhibition |
| C[C@@H]1O[C@@H](O[C@H]2[C@H](O[C@H]3[C@H](O[C@@H]4O[C@@H](C)[C@@H](O)[C@@H](O)[C@@H]4O)[C@@H](O)C(O)O[C@@H]3CO)O[C@H](CO)[C@H](O)[C@@H]2O)[C@@H](O)[C@H](O)[C@@H]1O (stereo partly shown) [DF-L, Difucosyllactose] |  |  | more efficient | Reduction of CTB binding compared to the no sugar control [2]: at least 75% |
| CC(=O)N[C@H]1[C@H]([C@H](O)[C@H](O)CO)O[C@@](O[C@H]2[C@@H](O)[C@@H](CO)O[C@@H](O[C@@H]([C@H](O[C@@H]3O[C@@H](C)[C@@H](O)[C@@H](O)[C@@H]3O)[C@H](C=O)NC(C)=O)[C@H](O)CO)[C@@H]2O)(C(=O)O)C[C@@H]1O [sLeX, 3′-Sialyl Lewis X] |  |  |  | Inhibition of CTB binding to T84 cells, titration of inhibitor (in words) [1]: near complete inhibition; Inhibitory potential, fold less than that of LeY [2]: 2 fold; AAL lectin retained bound to the cell surface [4]: ~ 70% |
| CC(=O)N[C@H]1C(O)O[C@H](CO)[C@@H](O[C@@H]2O[C@H](CO)[C@H](O)[C@H](O)[C@H]2O)[C@@H]1O (stereo partly drawn) [LacNAc, N-Acetyl-D-lactosamine] |  |  |  | Inhibition of CTB binding to primary human jejunal epithelial cells (in words) [3]: no inhibition |
| CC(=O)NC1C(O)CC(OC2C(O)C(OC3C(CO)OC(O)C(O)C3O)OC(CO)C2OC2OC(CO)C(O)C(OC3OC(CO)C(O)C(O)C3O)C2NC(C)=O)(C(=O)O)OC1C(O)C(O)CO (stereo not shown) [GM1a(os), GM1a ganglioside sugar] |  |  |  | Inhibition of CTB binding to T84 cells, titration of inhibitor (in words) [1]: could not completely inhibit CTB binding; CTB binding, % of the no sugar control [2]: ~ 5%; Fold more potent than LeY in inhibiting CTB binding [2]: approximately 2000 fold; IC50 ([2]; read-out: IC50 against CTB binding): 0.000109 ± 3.8e-05 mM |
| CC(=O)N[C@H]1[C@@H](O[C@H]2[C@@H](O)[C@@H](CO)O[C@@H](O[C@H]3[C@H](O[C@@H]4O[C@@H](C)[C@@H](O)[C@@H](O)[C@@H]4O)[C@@H](NC(C)=O)C(O)O[C@@H]3CO)[C@@H]2O[C@@H]2O[C@@H](C)[C@@H](O)[C@@H](O)[C@@H]2O)O[C@H](CO)[C@H](O)[C@@H]1O (stereo partly shown) [ALeY] |  | failed to produce a further increase in potency; also recorded: less effectively than LeY |  |  |
| O=C[C@@H](O)[C@H](O)[C@H](O)[C@@H](O)CO [L-galactose, L-Galactose] | modest loss in inhibition | modest loss in inhibition | effective inhibitors | Inhibition of AAL binding to T84 cells (in words) [5]: effective inhibitors |
| C[C@@H](O)[C@@H](O)[C@H](O)[C@@H](O)C=O [6-deoxy-D-glucose] | no effect | only minor effects | virtually no effect | Inhibition of AAL binding to T84 cells (in words) [5]: virtually no effect |
| OC[C@H]1O[C@@H](O[C@H]2[C@H](O)[C@@H](O)[C@H](O)O[C@@H]2CO)[C@H](O)[C@@H](O)[C@H]1O [lactose, d-Lactose monohydrate] | did not inhibit |  |  | inhibition at 100000 µM ([2]; COLO 205, read-out: Inhibition of CTB binding): ~50% |
| OC1OC[C@@H](O)[C@@H](O)[C@@H]1O (stereo partly drawn) [D-arabinose, d-(−)-Arabinose] | indistinguishably from the no sugar control | indistinguishably from the no sugar control | effective inhibitors | Inhibition of AAL binding to T84 cells (in words) [5]: effective inhibitors |
| C[C@H](O)[C@@H](O)[C@@H](O)[C@H](F)C=O [2-deoxy-2-fluoro-L-fucose, 2-Deoxy-2-fluoro-L-fucose] | indistinguishable | indistinguishable |  |  |
| CC(=O)N[C@H]1[C@H]([C@H](O)[C@H](O)CO)O[C@@](OC[C@H]2O[C@@H](O[C@H]3[C@H](O)[C@@H](O)[C@H](O)O[C@@H]3CO)[C@H](O)[C@@H](O)[C@H]2O)(C(=O)O)C[C@@H]1O [6′-SL, 6′-Sialyllactose sodium salt] | no inhibition | no inhibition |  | Inhibition of SNA binding (in words) [7]: enhance the inhibitory potential of lactose |
| C[C@H](O)C[C@@H](O)[C@H](O)C=O [4-deoxy-fucose, 4-Deoxy-L-fucose] | complete loss in inhibitory potential | complete loss in inhibitory potential |  |  |
| CC(=O)N[C@H]1C(O)O[C@H](CO)[C@@H](O[C@@H]2O[C@H](CO)[C@H](O)[C@H](O)[C@H]2O[C@@H]2O[C@@H](C)[C@@H](O)[C@@H](O)[C@@H]2O)[C@@H]1O (stereo partly shown) [H antigen, Blood group H antigen triaose type 2] |  |  |  | Reduction of CTB binding compared to the no sugar control [2]: at least 75% |
| CC1OC(OC2C(OC3C(CO)OC(O)C(O)C3O)OC(CO)C(O)C2O)C(O)C(O)C1O (stereo not shown) [2′-FL, 2′-Fucosyllactose] | more potent inhibitor | more potent inhibitor than L-fucose alone | inhibit binding | IC50 [2]: 3 mM; Reduction of CTB binding compared to the no sugar control [2]: at least 75%; Reduction of IC50 relative to L-fucose [2]: ~ 5 fold |
